Source: publication PMC2248166, “Quantitative peptide binding motifs for 19 human and mouse MHC class I molecules derived using positional scanning combinatorial peptide libraries” (Immunome Research, 2008)
pIC50: −log10 of the molar value. Where a SMILES comes first, the peptide text is derived from it.

molecular target: HLA B*1501 (Homo sapiens, UniProt P01889, A329T/A93T/A95T/C349S/D201E/D98Y/E187L/E204Q/E69M/E70A/K202T/N87E/Q94N/R155S/R180W/S121R/S35A/S48A/V306I/V36M/Y140S/Y91S); assay: biochemical; type: binding

| SMILES | pIC50 |
| --- | --- |
| CC[C@H](C)[C@H](NC(=O)[C@H](CO)NC(=O)[C@H](C)N)C(=O)N[C@H](C(=O)N[C@@H](C)C(=O)N[C@@H](Cc1ccccc1)C(=O)N[C@@H](CCCCN)C(=O)N[C@@H](CO)C(=O)N[C@@H](CCSC)C(=O)O)[C@@H](C)O [3102.0999] (H-ASITAFKSM-OH) | 7.60 |
| CC(C)C[C@H](N)C(=O)NCC(=O)N[C@@H](Cc1ccccc1)C(=O)N[C@@H](CC(=O)O)C(=O)N[C@H](C(=O)N[C@H](C(=O)N[C@@H](C)C(=O)N[C@@H](Cc1ccc(O)cc1)C(=O)N[C@@H](Cc1ccccc1)C(=O)O)C(C)C)C(C)C [3102.0790] (H-LGFDVVAYF-OH) | 7.17 |
| CC[C@H](C)[C@H](N)C(=O)N[C@@H](CC(C)C)C(=O)N[C@@H](CCCCN)C(=O)N[C@@H](CCCCN)C(=O)N[C@@H](CC(C)C)C(=O)N[C@@H](CO)C(=O)N1CCC[C@H]1C(=O)N[C@@H](Cc1ccc(O)cc1)C(=O)N[C@@H](Cc1ccccc1)C(=O)O [3102.0903] (H-ILKKLSPYF-OH) | 8.92 |
| C[C@H](NC(=O)[C@H](CO)NC(=O)[C@@H](N)CCCNC(=N)N)C(=O)N[C@@H](CC(N)=O)C(=O)N[C@H](C(=O)N[C@@H](CO)C(=O)N[C@@H](C)C(=O)N1CCC[C@H]1C(=O)N[C@@H](Cc1ccccc1)C(=O)O)[C@@H](C)O [3102.0964] (H-RSANTSAPF-OH) | 9.17 |
| CSCC[C@H](NC(=O)[C@@H](N)C(C)C)C(=O)N[C@H](C(=O)N[C@@H](CCCCN)C(=O)N[C@@H](Cc1c[nH]c2ccccc12)C(=O)N[C@@H](CS)C(=O)N[C@@H](C)C(=O)N1CCC[C@H]1C(=O)N[C@@H](Cc1ccccc1)C(=O)O)[C@@H](C)O [3102.0886] (H-VMTKWCAPF-OH) | 8.72 |
| CC[C@H](C)[C@H](N)C(=O)N[C@@H](CO)C(=O)N[C@H](C(=O)N[C@@H](CCCCN)C(=O)N[C@@H](CC(C)C)C(=O)N[C@@H](CO)C(=O)N[C@@H](CS)C(=O)N[C@@H](Cc1c[nH]cn1)C(=O)N[C@@H](Cc1ccc(O)cc1)C(=O)O)[C@@H](C)O [3102.0872] (H-ISTKLSCHY-OH) | 7.74 |
| CC[C@H](C)[C@H](NC(=O)[C@H](Cc1ccccc1)NC(=O)[C@@H](N)Cc1ccc(O)cc1)C(=O)N[C@@H](CCCCN)C(=O)N[C@@H](Cc1c[nH]cn1)C(=O)N[C@H](C(=O)N[C@@H](CC(C)C)C(=O)N[C@@H](C)C(=O)N[C@@H](Cc1ccccc1)C(=O)O)C(C)C [3102.0907] (H-YFIKHVLAF-OH) | 8.60 |
| CC(C)C[C@H](NC(=O)[C@H](CCC(=O)O)NC(=O)[C@@H]1CCCN1C(=O)[C@@H](NC(=O)[C@H](Cc1ccc(O)cc1)NC(=O)[C@@H](NC(=O)[C@@H](N)Cc1ccccc1)C(C)C)C(C)C)C(=O)N[C@@H](CO)C(=O)N[C@@H](Cc1ccccc1)C(=O)O [3102.1280] (H-FVYVPELSF-OH) | 9.02 |
| CC[C@H](C)[C@H](NC(=O)[C@H](CO)NC(=O)[C@@H](N)CCCNC(=N)N)C(=O)N[C@@H](CO)C(=O)N[C@@H](CCCNC(=N)N)C(=O)N[C@H](C(=O)N[C@@H](CCC(=O)O)C(=O)N[C@@H](CC(N)=O)C(=O)N[C@@H](Cc1ccccc1)C(=O)O)[C@@H](C)O [3102.0929] (H-RSISRTENF-OH) | 8.32 |
| CC[C@H](C)[C@H](NC(=O)[C@@H](N)CO)C(=O)N[C@@H](CCCCN)C(=O)N[C@@H](CC(N)=O)C(=O)N[C@@H](CC(C)C)C(=O)N[C@H](C(=O)N[C@@H](CO)C(=O)N[C@@H](CCC(N)=O)C(=O)N[C@@H](Cc1ccccc1)C(=O)O)C(C)C [3102.0951] (H-SIKNLVSQF-OH) | 7.60 |
| CC(C)C[C@H](NC(=O)[C@H](CS)NC(=O)[C@H](CCCCN)NC(=O)[C@H](CCCCN)NC(=O)[C@H](Cc1ccccc1)NC(=O)[C@H](CO)NC(=O)[C@@H](N)Cc1ccccc1)C(=O)N[C@H](C(=O)N[C@@H](Cc1ccc(O)cc1)C(=O)O)C(C)C [3102.0925] (H-FSFKKCLVY-OH) | 8.33 |
| CC[C@H](C)[C@H](NC(=O)[C@H](CC(N)=O)NC(=O)[C@H](CC(N)=O)NC(=O)[C@@H](NC(=O)[C@@H](N)CO)[C@@H](C)CC)C(=O)N[C@@H](CC(=O)O)C(=O)N1CCC[C@H]1C(=O)N[C@@H](Cc1c[nH]cn1)C(=O)N[C@@H](Cc1ccccc1)C(=O)O [3102.1039] (H-SINNIDPHF-OH) | 7.92 |
